Assay results as given in ChEMBL document CHEMBL5096210, “Discovery of Betulinic Acid Derivatives as Potent Intestinal Farnesoid X Receptor Antagonists to Ameliorate Nonalcoholic Steatohepatitis” (J Med Chem, 2022).
Active and inactive are the calls of the source. No cut-off for these calls is given here.

Tests used:
Mus musculus [1] = experiment: Anti-NASH activity in GAN-induced mouse assessed as increase in glucose tolerance at 10 mg/kg; format: functional, organism-based
Mus musculus [2] = experiment: Anti-NASH activity in GAN-induced mouse assessed as reduction in fasting glucose level at 10 mg/kg measured upto 120 mins; format: functional, organism-based
Liver [3] = experiment: Anti-NASH activity in GAN diet-induced […] mouse liver assessed as reduction in hepatocyte collagen deposition by Sirius red staining based analysis; format: functional, cell-based
[4] = molecular target: T1, Bile acid receptor (Mus musculus) (UniProt Q60641); experiment: In vivo antagonist activity against FXR in microbeta depleted mouse assessed as reduction in taurocholic acid induced FXR mRNA expression in hepatic signaling at 10 mg/kg, po incubated for 2 to 48 hrs; format: functional, organism-based; details: time 2-48 hrs
T1 sequence (whole entry): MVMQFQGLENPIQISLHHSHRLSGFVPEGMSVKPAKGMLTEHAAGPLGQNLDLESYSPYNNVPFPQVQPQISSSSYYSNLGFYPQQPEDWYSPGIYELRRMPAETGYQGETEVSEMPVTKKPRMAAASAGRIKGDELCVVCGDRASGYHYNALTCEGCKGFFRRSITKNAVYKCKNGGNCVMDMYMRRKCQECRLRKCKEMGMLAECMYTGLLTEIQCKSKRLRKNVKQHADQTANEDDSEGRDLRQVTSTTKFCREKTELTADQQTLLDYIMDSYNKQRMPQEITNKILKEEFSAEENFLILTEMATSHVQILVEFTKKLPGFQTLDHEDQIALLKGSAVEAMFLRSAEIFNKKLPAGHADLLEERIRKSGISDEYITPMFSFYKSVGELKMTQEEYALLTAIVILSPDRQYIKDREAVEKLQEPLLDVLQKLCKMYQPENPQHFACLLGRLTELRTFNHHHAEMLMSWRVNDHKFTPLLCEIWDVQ

Liver [5] = experiment: Anti-NASH activity in GAN diet-induced […] mouse liver assessed as reduction in hepatocyte fat by Sirius red staining based analysis; format: functional, cell-based
Mus musculus [6] = organism: Mus musculus; experiment: Anti-NASH activity in GAN diet-induced […] mouse assessed as bile acid level in serum; format: functional, organism-based
Mus musculus [7] = organism: Mus musculus; experiment: Anti-NASH activity in GAN diet-induced […] mouse assessed as decrease in hydroxyproline in liver; format: functional, organism-based
Mus musculus [8] = experiment: Anti-NASH activity in HFMCD diet-induced […] mouse assessed as reduction in ALT serum level at 30 mg/kg, po for 4 weeks; format: functional, organism-based
[9] = molecular target: T1, Bile acid receptor (Mus musculus); experiment: In vivo antagonist activity against FXR in mouse assessed as reduction in Tgr5 expression in small intestine organoids; format: functional
Mus musculus [10] = organism: Mus musculus; experiment: Anti-NASH activity in HFMCD diet-induced […] mouse assessed as decrease in collagen deposition by Sirius red staining based analysis; format: functional, organism-based
Mus musculus [11] = experiment: Anti-NASH activity in GAN diet-induced […] mouse assessed as reduction of ceramide level in serum administered orally for 12 weeks; format: functional, organism-based; details: route po
Mus musculus [12] = organism: Mus musculus; experiment: Anti-NASH activity in GAN diet-induced […] mouse assessed as increase in bile acid level in liver; format: functional, organism-based
Mus musculus [13] = organism: Mus musculus; experiment: Anti-NASH activity in GAN diet-induced […] mouse assessed as reduction in Tgf-beta level; format: functional, organism-based
Mus musculus [14] = organism: Mus musculus; experiment: Anti-NASH activity in GAN diet-induced […] mouse assessed as upregulation of Cyp8b1 mRNA expression in liver; format: functional, organism-based
Mus musculus [15] = organism: Mus musculus; experiment: Anti-NASH activity in GAN diet-induced […] mouse assessed as reduction in hepatic cholesterol level; format: functional, organism-based
Mus musculus [16] = organism: Mus musculus; experiment: Anti-NASH activity in GAN diet-induced […] mouse assessed as reduction in mature Il1beta; format: functional, organism-based
Mus musculus [17] = organism: Mus musculus; experiment: Anti-NASH activity in GAN diet-induced […] mouse assessed as reduction in Fabp3 mRNA expression level; format: functional, organism-based
Mus musculus [18] = organism: Mus musculus; experiment: Anti-NASH activity in GAN diet-induced […] mouse assessed as reduction in hepatic triglycerides level; format: functional, organism-based
Mus musculus [19] = organism: Mus musculus; experiment: Anti-NASH activity in GAN diet-induced […] mouse assessed as downregulation of Ccl2 level; format: functional, organism-based
Mus musculus [20] = organism: Mus musculus; experiment: Anti-NASH activity in GAN diet-induced […] mouse assessed as upregulation of Ppara mRNA expression level; format: functional, organism-based
Liver [21] = experiment: Anti-NASH activity in GAN diet-induced […] mouse liver assessed as reduction in macrosteatosis by Oil Red O staining based assay; format: functional
Mus musculus [22] = experiment: Anti-NASH activity in HFMCD diet-induced […] mouse assessed as reduction in hepatic TG concentration at 10 to 30 mg/kg, po for 4 weeks; format: functional, organism-based; details: dose 10-30 mg/kg
Liver [23] = experiment: Anti-NASH activity in GAN diet-induced […] mouse liver assessed as reduction in hepatocyte ballooning by H and E staining based analysis; format: functional, cell-based
Mus musculus [24] = organism: Mus musculus; experiment: Anti-NASH activity in GAN diet-induced […] mouse assessed as reduction in Fabp4 mRNA expression level; format: functional, organism-based
Liver [25] = experiment: Anti-NASH activity in GAN diet-induced […] mouse liver assessed as reduction in hepatocyte ballooning by Sirius red staining based analysis; format: functional, cell-based
Mus musculus [26] = organism: Mus musculus; experiment: Anti-NASH activity in GAN diet-induced […] mouse assessed as reduction in liver weight; format: functional, organism-based
[27] = molecular target: T1, Bile acid receptor (Mus musculus); experiment: In vivo antagonist activity against FXR in mouse assessed as reduction in Fgf15 level in presence of CDCA; format: functional
Liver [28] = experiment: Anti-NASH activity in GAN diet-induced […] mouse liver assessed as reduced NAFLD activity score; format: functional
Mus musculus [29] = organism: Mus musculus; experiment: Anti-NASH activity in GAN diet-induced […] mouse assessed as reduction of bile acid pool size in ileum; format: functional, organism-based
Mus musculus [30] = organism: Mus musculus; experiment: Anti-NASH activity in GAN diet-induced […] mouse assessed as reduction in Cd36 mRNA expression level; format: functional, organism-based
Bile acid receptor = molecular target: T2, Bile acid receptor (Homo sapiens, UniProt Q96RI1); experiment: Antagonist activity at FXR (unknown origin) expressed in HEK293T cells cotransfected with pCMV-Script-hFXR/pGL4.11-hSHP-Luciferase incubated for 24 hrs in presence of GW4064 by Steady-glo luciferase assay; format: cell-based
T2 sequence (Q96RI1 whole entry): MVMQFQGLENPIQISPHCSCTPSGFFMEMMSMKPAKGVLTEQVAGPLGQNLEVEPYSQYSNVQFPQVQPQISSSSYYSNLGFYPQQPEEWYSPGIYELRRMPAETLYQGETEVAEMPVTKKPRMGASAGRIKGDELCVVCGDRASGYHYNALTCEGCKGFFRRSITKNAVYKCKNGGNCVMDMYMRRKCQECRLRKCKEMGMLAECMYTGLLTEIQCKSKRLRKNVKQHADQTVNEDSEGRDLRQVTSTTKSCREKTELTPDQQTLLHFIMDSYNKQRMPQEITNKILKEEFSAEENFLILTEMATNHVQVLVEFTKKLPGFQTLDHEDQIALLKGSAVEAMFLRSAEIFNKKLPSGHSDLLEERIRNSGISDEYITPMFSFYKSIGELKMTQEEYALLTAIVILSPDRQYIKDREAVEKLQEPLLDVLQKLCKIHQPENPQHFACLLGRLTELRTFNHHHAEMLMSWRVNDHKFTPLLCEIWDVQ

Question: `CCCC(=O)O[C@@H]1CC[C@]2(C)[C@H]3CC[C@@H]4[C@H]5[C@H](C(C)C)CC[C@]5(C(=O)NCC(=O)O)CC[C@@]4(C)[C@]3(C)CC[C@H]2C1(C)C` was tested. Which Activity (Mus musculus [1]) did it give?
Answer: Active

Question: What about the Activity (Mus musculus [2]) of the same compound?
Answer: Active

Question: And the Activity (Liver [3])?
Answer: Active

Question: And the Activity [4]?
Answer: Active

Question: What about the Activity (Liver [5]) of the same compound?
Answer: Active

Question: And the Activity (Mus musculus [6])?
Answer: Active

Question: What about the Activity (Mus musculus [7]) of the same compound?
Answer: Active

Question: What about the Activity (Mus musculus [8]) of the same compound?
Answer: Active

Question: What about the Activity [9] of the same compound?
Answer: Active

Question: And the Activity (Mus musculus [10])?
Answer: Active

Question: And the Activity (Mus musculus [11])?
Answer: Active

Question: And the Activity (Mus musculus [12])?
Answer: Active

Question: What about the Activity (Mus musculus [13]) of the same compound?
Answer: Active

Question: And the Activity (Mus musculus [14])?
Answer: Active

Question: What about the Activity (Mus musculus [15]) of the same compound?
Answer: Active

Question: And the Activity (Mus musculus [16])?
Answer: Active

Question: And the Activity (Mus musculus [17])?
Answer: Active

Question: What about the Activity (Mus musculus [18]) of the same compound?
Answer: Active

Question: What about the Activity (Mus musculus [19]) of the same compound?
Answer: Active

Question: What about the Activity (Mus musculus [20]) of the same compound?
Answer: Active

Question: And the Activity (Liver [21])?
Answer: Active

Question: What about the Activity (Mus musculus [22]) of the same compound?
Answer: Active

Question: What about the Activity (Liver [23]) of the same compound?
Answer: Active

Question: What about the Activity (Mus musculus [24]) of the same compound?
Answer: Active

Question: What about the Activity (Liver [25]) of the same compound?
Answer: Active

Question: What about the Activity (Mus musculus [26]) of the same compound?
Answer: Active

Question: And the Activity [27]?
Answer: Active

Question: What about the Activity (Liver [28]) of the same compound?
Answer: Active

Question: And the Activity (Mus musculus [29])?
Answer: Active

Question: What about the Activity (Mus musculus [30]) of the same compound?
Answer: Active

Question: What about the IC50 (Bile acid receptor) of the same compound?
Answer: 2.1 µM
